According to patent US9815796B2 (Merck Sharp & Dohme Corp., priority 2013, dated 2017):

target: human PDE2A1 (Homo sapiens (Human), UniProt O00408); assay: IMAP FP PDE selectivity panel, human PDE2A1; format: biochemical; details: Human PDE2, Lab B; read-out: Human PDE2 Ki (nM) - Lab B
In short: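 IMAP FP format: substrate 50 nM FAM-cAMP plus 1000 nM cGMP, enzyme (insect-cell GST-tagged human PDE2A1) at ~20% conversion, 60 min reaction at room temperature. Apparent inhibition constants calculated from parallel/perpendicular fluorescence with KM 10,000 nM.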

human PDE2A1, sequence (O00408 other isoform, or with tags, fused parts or gaps): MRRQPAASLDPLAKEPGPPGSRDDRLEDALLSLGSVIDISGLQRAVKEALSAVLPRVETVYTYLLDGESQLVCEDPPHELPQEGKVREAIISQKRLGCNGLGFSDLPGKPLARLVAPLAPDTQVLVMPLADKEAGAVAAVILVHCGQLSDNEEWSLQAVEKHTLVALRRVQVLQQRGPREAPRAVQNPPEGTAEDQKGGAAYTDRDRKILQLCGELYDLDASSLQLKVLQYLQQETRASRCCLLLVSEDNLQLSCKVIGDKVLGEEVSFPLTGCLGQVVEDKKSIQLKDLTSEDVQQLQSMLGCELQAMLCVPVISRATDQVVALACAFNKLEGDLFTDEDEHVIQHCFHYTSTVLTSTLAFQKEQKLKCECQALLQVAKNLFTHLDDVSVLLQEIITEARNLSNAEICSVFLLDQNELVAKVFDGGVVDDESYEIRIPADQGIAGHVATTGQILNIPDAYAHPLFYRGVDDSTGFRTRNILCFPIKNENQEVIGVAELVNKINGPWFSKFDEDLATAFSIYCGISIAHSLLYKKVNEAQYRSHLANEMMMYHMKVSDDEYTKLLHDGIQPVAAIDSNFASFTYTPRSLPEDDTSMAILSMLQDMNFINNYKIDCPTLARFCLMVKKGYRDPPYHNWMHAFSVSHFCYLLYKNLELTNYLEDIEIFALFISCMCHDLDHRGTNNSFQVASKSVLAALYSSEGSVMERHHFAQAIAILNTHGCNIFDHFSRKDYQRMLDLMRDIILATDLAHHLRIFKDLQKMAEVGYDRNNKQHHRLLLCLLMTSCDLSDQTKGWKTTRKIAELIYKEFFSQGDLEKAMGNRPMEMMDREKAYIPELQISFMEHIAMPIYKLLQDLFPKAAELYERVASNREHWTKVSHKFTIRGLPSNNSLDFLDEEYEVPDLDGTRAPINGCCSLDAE

Compound	Ki
Cc1nc(C(=O)NC(C)(C)c2cc(F)c(C(F)(F)F)cc2Cl)cc(=O)[nH]1 [Example 659, N-{1-[2-chloro-5-fluoro-4-(trifluoromethyl)phenyl]-1-methylethyl}-2-methyl-6-oxo-1,6-dihydropyrimidine-4-carboxamide]	139 nM
Cc1nc(C(=O)NC2(c3ccc(OC(F)F)cc3)CC2)cc(=O)[nH]1 [Example 628, N-{1-[4-(difluoromethoxy)phenyl]cyclopropyl}-2-methyl-6-oxo-1,6-dihydropyrimidine-4-carboxamide]	87 nM
O=C(N[C@@H]1COCc2cc(C(F)(F)F)ccc21)c1cc(=O)[nH]c(-c2ccccc2)n1 [Example 551, 6-oxo-2-phenyl-N-[(4S)-7-(trifluoromethyl)-3,4-dihydro-1H-isochromen-4-yl]-1,6-dihydropyrimidine-4-carboxamide]	157 nM
Cc1nc(C(=O)NC2(c3ccc(C(F)(F)F)cc3)CC2(C)C)cc(=O)[nH]1 (centres unmarked) [Example 681, N-(2,2-dimethyl-1-(4-(trifluoromethyl)phenyl)cyclopropyl)-2-methyl-6-oxo-1,6-dihydropyrimidine-4-carboxamide]	7 nM
C[C@](CO)(NC(=O)c1cc(=O)[nH]c(-c2ccccc2)n1)c1ccc(C(F)(F)F)cc1Cl [Example 643, N-{(1S)-1-[2-chloro-4-(trifluoromethyl)phenyl]-2-hydroxy-1-methylethyl}-6-oxo-2-phenyl-1,6-dihydropyrimidine-4-carboxamide]	0.5 nM
Cc1nc(C(=O)N[C@@H](c2ccc(C(F)F)c(F)c2)C(C)(C)C)cc(=O)[nH]1 [Example 646, N-{(1R)-1-[4-(difluoromethyl)-3-fluorophenyl]-2,2-dimethylpropyl}-2-methyl-6-oxo-1,6-dihydropyrimidine-4-carboxamide]	15 nM
CCc1nc(C(=O)N[C@](C)(CO)c2ccc(C(F)(F)F)cc2Cl)cc(=O)[nH]1 [Example 639, N-{(1S)-1-[2-chloro-4-(trifluoromethyl)phenyl]-2-hydroxy-1-methylethyl}-2-ethyl-6-oxo-1,6-dihydropyrimidine-4-carboxamide]	2 nM
O=C(NC1(c2ccc3c(c2)OC(F)(F)O3)CC1)c1cc(=O)[nH]c(-c2ncccn2)n1 [Example 571, N-[1-(2,2-difluoro-1,3-benzodioxol-5-yl)cyclopropyl]-6-oxo-1,6-dihydro-2,2′-bipyrimidine-4-carboxamide]	71 nM
CC(C)(C)[C@@H](NC(=O)c1cc(=O)[nH]c(-c2ncccn2)n1)c1ccc(C(F)(F)F)cc1F [Example 565, N-{(1R)-1-[2-fluoro-4-(trifluoromethyl)phenyl]-2,2-dimethylpropyl}-6-oxo-1,6-dihydro-2,2′-bipyrimidine-4-carboxamide]	7 nM
CC(NC(=O)c1cc(=O)[nH]c(C2CC2)n1)c1ccc(C2(C(F)(F)F)CC2)cc1 (single isomer, unassigned) [Example 689, (R)- or (S)-2-cyclopropyl-6-oxo-N-(1-(4-(1-(trifluoromethyl)cyclopropyl)phenyl)-ethyl)-1,6-dihydropyrimidine-4-carboxamide]	67 nM
CC1([C@@H](NC(=O)c2cc(=O)[nH]c(-c3ccccc3)n2)c2ccc(S(F)(F)(F)(F)F)cc2)CC1 [Example 549, N-{(R)-(1-methylcyclopropyl)[4-(pentafluoro-λ^6-sulfanyl)phenyl]methyl}-6-oxo-2-phenyl-1,6-dihydropyrimidine-4-carboxamide]	4.5 nM
Cc1nc(C(=O)N[C@@H](c2ccc(C3(C)CC3)cc2)C(C)C)cc(=O)[nH]1 [Example 532, 2-methyl-N-{(1R)-2-methyl-1-[4-(1-methylcyclopropyl)phenyl]propyl}-6-oxo-1,6-dihydropyrimidine-4-carboxamide]	16 nM
Cc1nc(C(=O)N[C@@H](c2ccc(C(F)(F)F)c(F)c2)C(C)(C)O)cc(=O)[nH]1 [Example 723, N-{(1S)-1-[3-fluoro-4-(trifluoromethyl)phenyl]-2-hydroxy-2-methylpropyl}-2-methyl-6-oxo-1,6-dihydropyrimidine-4-carboxamide]	8.6 nM

Other lines, results leading:

Ki	Compound
16 nM	Cc1nc(C(=O)N[C@@H](c2ccc3c(c2)OC(F)(F)O3)C(C)(C)C)cc(=O)[nH]1 [Example 633, N-[(1R)-1-(2,2-difluoro-1,3-benzodioxol-5-yl)-2,2-dimethylpropyl]-2-methyl-6-oxo-1,6-dihydropyrimidine-4-carboxamide]
32 nM	Cc1nc(C(=O)N[C@H](C)c2ccc(S(F)(F)(F)(F)F)cc2F)cc(=O)[nH]1 [Example 673, N-(1-(2-fluoro-4-(pentafluorothio)phenyl)ethyl)-2-methyl-6-oxo-1,6-dihydropyrimidine-4-carboxamide]
120 nM	COc1cc(C(F)(F)F)ccc1C(C)(C)NC(=O)c1cc(=O)[nH]c(C)n1 [Example 594, N-{1-[2-methoxy-4-(trifluoromethyl)phenyl]-1-methylethyl}-2-methyl-6-oxo-1,6-dihydropyrimidine-4-carboxamide]
108 nM	Cc1nc(C(=O)NC(C)c2ccc(C3(C(F)(F)F)CC3)cc2)cc(=O)[nH]1 (single isomer, unassigned) [Example 687, (R)- or (S)-2-methyl-6-oxo-N-(1-(4-(1-(trifluoromethyl)cyclopropyl)phenyl)-ethyl)-1,6-dihydropyrimidine-4-carboxamide]
> 2960 nM	CC(NC(=O)c1cc(=O)[nH]c(-c2ccccc2)n1)c1ccc(C2(C(F)(F)F)CC2)cc1 (single isomer, unassigned) [Example 690, (S)- or (R)-6-oxo-2-phenyl-N-(1-(4-(1-(trifluoromethyl)cyclopropyl)phenyl)-ethyl)-1,6-dihydropyrimidine-4-carboxamide]
1.4 nM	CC(C)(C)[C@@H](NC(=O)c1cc(=O)[nH]c(-c2ccccc2)n1)c1ccc(C(F)(F)F)c(F)c1 [Example 538, N-{(1R)-1-[3-fluoro-4-(trifluoromethyl)phenyl]-2,2-dimethylpropyl}-6-oxo-2-phenyl-1,6-dihydropyrimidine-4-caboxamide]
64 nM	Cc1nc(C(=O)NC2(c3ccc(C(F)F)c(F)c3)CC2)cc(=O)[nH]1 [Example 655, N-{l-[4-(difluoromethyl)-3-fluorophenyl]cyclopropyl}-2-methyl-6-oxo-1,6-dihydropyrimidine-4-carboxamide]
2.4 nM	O=C(N[C@@H](c1ccc(C2CC2)cc1)C1CC1)c1cc(=O)[nH]c(-c2ccccc2)n1 [Example 544, N-[(R)-cyclopropyl(4-cyclopropylphenyl)methyl]-6-oxo-2-phenyl-1,6-dihydropyrimidine-4-carboxamide]
71 nM	C[C@@H](NC(=O)c1cc(=O)[nH]c(-c2ncccn2)n1)c1ccc2c(c1)OC(F)(F)O2 [Example 587, N-[(1R)-1-(2,2-difluoro-1,3-benzodioxol-5-yl)ethyl]-6-oxo-1,6-dihydro-2,2′-bipyrimidine-4-carboxamide]
202 nM	CC(C)C(C)(NC(=O)c1cc(=O)[nH]c(-c2ncccn2)n1)c1ccc(S(F)(F)(F)(F)F)cc1 (centres unmarked) [Example 561, N-{1,2-dimethyl-1-[4-(pentafluoro-λ^6-sulfanyl)phenyl]propyl}-6-oxo-1,6-dihydro-2,2′-bipyrimidine-4-carboxamide]
1.3 nM	CC(C)(C)[C@@H](NC(=O)c1cc(=O)[nH]c(-c2ccccc2)n1)c1ccc(SC(F)(F)F)cc1 [Example 541, N-[(1R)-2,2-dimethyl-1-{4-[(trifluoromethyl)sulfanyl]phenyl}propyl]-6-oxo-2-phenyl-1,6-dihydropyrimidine-4-carboxamide]
~1820 nM	CC1(c2ccc(C(NC(=O)c3cc(=O)[nH]c(-c4ccccc4)n3)C(C)(C)C)cc2F)CC1 (single isomer, unassigned) [Example 714, (S)- or (R)-N-(1-(3-fluoro-4-(1-methylcyclopropyl)phenyl)-2,2-dimethylpropyl)-6-oxo-2-phenyl-1,6-dihydropyrimidine-4-carboxamide]
54 nM	Cc1nc(C(=O)NC2(c3ccc(C(F)F)cc3)CC2)cc(=O)[nH]1 [Example 660, N-{1-[4-(difluoromethyl)phenyl]cyclopropyl}-2-methyl-6-oxo-1,6-dihydropyrimidine-4-carboxamide]
52 nM	Cc1nc(C(=O)N[C@@H](c2ccc(C(F)F)c(F)c2)C2(C)CC2)cc(=O)[nH]1 [Example 647, N-[(R)-[4-(difluoromethyl)-3-fluorophenyl](1-methylcyclopropyl)methyl]-2-methyl-6-oxo-1,6-dihydropyrimidine-4-carboxamide]
1.6 nM	CC(C)(C)[C@@H](NC(=O)c1cc(=O)[nH]c(-c2ccccc2)n1)c1ccc(S(F)(F)(F)(F)F)cc1 [Example 540, N-{(1R)-2,2-dimethyl-1-[4-(pentafluoro-λ^6-sulfanyl)phenyl]propyl}-6-oxo-2-phenyl-1,6-dihydropyrimidine-4-carboxamide]
15 nM	CCC(C)(NC(=O)c1cc(=O)[nH]c(C)n1)c1ccc(C(F)(F)F)cc1 (single isomer, unassigned) [Example 669, (R)- or (S)-2-methyl-N-{1-methyl-1-[4-(trifluoromethyl)phenyl]propyl}-6-oxo-1,6-dihydropyrimidine-4-carboxamide]
4.8 nM	C[C@](CO)(NC(=O)c1cc(=O)[nH]c(-c2ccccc2)n1)c1ccc(C(F)(F)F)cc1 [Example 642, N-{(1S)-2-hydroxy-1-methyl-1-[4-(trifluoromethyl)phenyl]ethyl}-6-oxo-2-phenyl-1,6-dihydropyrimidine-4-carboxamide]
15 nM	CC(C)[C@@H](NC(=O)c1cc(=O)[nH]c(-c2ncccn2)n1)c1ccc2c(c1)OC(F)(F)O2 [Example 592, N-[(1R)-1-(2,2-difluoro-1,3-benzodioxol-5-yl)-2-methylpropyl]-6-oxo-1,6-dihydro-2,2′-bipyrimidine-4-carboxamide]
103 nM	CC(NC(=O)c1cc(=O)[nH]c(-c2ccccc2)n1)c1ccc(C(C)(C)C(F)(F)F)cc1 (single isomer, unassigned) [Example 699, (R)- or (S)-6-oxo-2-phenyl-N-(1-(4-(1,1,1-trifluoro-2-methylpropan-2-yl)phenyl)ethyl)-1,6-dihydropyrimidine-4-carboxamide]
